Measurements as given in patent US8232377B2, “Method for high-level secretory production of protein” (priority 2006, dated 2012).

Tests used:
[1] = tested on: O. minuta YY3P4omH strain; experiment: Antibody production by PMT4-inactivated, HAC1-introduced O. minuta using PMT inhibitor (1c), TR-FRET quantification; assay type: cell-based, Ogataea minuta; conditions: stock solution 10 mM; 27° C., 3 days (FIG. 18)
Procedure: (§1) 20 mM Tris-HCl buffer (pH 7.2) comprising 12 μl of 0.97 μg/ml LANCE Eu-W1024 labeled anti-human IgG (PerkinElmer), 8.3 ug/ml of biotin-conjugated mouse anti-human IgG (BD Bioscience), 16.7 ug/ml Surelight APC streptavidin (PerkinElmer), and 10% of Block Ace (Dainippon Pharmaceutical) was applied to a 96-well half area plate (Corning), and 2 μl of a sample solution prepared by adequately diluting the culture solution prepared in (2) above with 20 mM Tris-HCl buffer (pH 7.2) containing 10% of Block Ace was introduced therein, followed by agitation. The sample solution was subjected to the reaction at room temperature in the dark for 1 hour, and fluorescence was then assayed using EnVision (PerkinElmer). The amount of aggregate antibodies produced was determined based on the value at 665 nm/615 nm. Antibodies produced in animal cells (CHO) were used as standard samples. […]
(§2) A platinum loopful of antibody-producing strains with an insertionally inactivated PMT gene and with the HAC1 gene introduced therein prepared in Example 25 (1) was inoculated into 5 ml of B2YP4G medium, cultured at 27° C. for 1 day, and diluted with B2YP4G medium to adjust OD600 to 10. […] Culture was conducted at 27° C. for an additional 3 days, OD600 was measured every 24 hours, and PMT inhibitors (1c) were added in amounts of 0.00032 μM, 0.0016 μM, 0.008 μM, and 0.04 μM, respectively, as the OD600 value increased by 1. […]

[2] = tested on: O. minuta YY3P2omH strain; experiment: Antibody production by PMT2-inactivated, HAC1-introduced O. minuta using PMT inhibitor (1c), TR-FRET quantification; assay type: cell-based, Ogataea minuta; conditions: stock solution 2.5 mM; 27° C., 3 days (FIG. 18)
Procedure: as §1, §2

[3] = tested on: O. minuta AK3RH and O. minuta AK3AHy; experiment: Antibody production by transformed O. minuta with PMT inhibitor added, Western analysis of culture supernatant; assay type: cell-based, Ogataea minuta; conditions: Western analysis (FIG. 6)
Procedure: O. minuta AK3RH and O. minuta AK3AHy were cultured in BYPG medium (1% yeast extract (Difco), 2% polypeptone (Difco), 0.5% glycerol, and 0.1M phosphate buffer (pH 6.0)) for 2 days, and these strain were cultured in BYPM media [1% yeast extract (Difco), 2% polypeptone (Difco), 1.5% methanol, and 0.1M phosphate buffer (pH 6.0)] to which 0 μM, 1 μM, 5 μM, 10 μM, 20 μM, and 50 μM PMT inhibitors (the rhodanine-3-acetic acid derivative: 5-[[3,4-(1-phenylmethoxy)phenyl]methylene]-4-oxo-2-thioxo-3-thiazolidineacetic acid (compound (1c) described in Bioorganic & Medicinal Chemistry Letters, Vol. 14, p. 3975, 2004)) had been added at 28° C. for 2 days. A culture supernatant was prepared from the culture solution and subjected to SDS-PAGE. Thereafter, the separated protein was blotted on a PVDF membrane, and Western analysis was carried out using a labeled anti-human antibody (anti-human Fc antibody). […] The adequate concentration of the PMT inhibitor to be added was 5 μM. In such a case, the amount of antibody secretion and the percentage of aggregate formation were increased.

[4] = tested on: S. cerevisiae T2K01, T2K02, T2K03 and T2K04 strains; experiment: Antibody productivity of transformed S. cerevisiae with PMT inhibitor added, sandwich ELISA; assay type: cell-based, Saccharomyces cerevisiae; conditions: 10 μM PMT inhibitor in YPAD medium, 30° C., 3 days (FIG. 8B)
Procedure: The S. cerevisiae T2K01, S. cerevisiae T2K02, S. cerevisiae T2K03, and S. cerevisiae T2K04 strains prepared in Example 14 were cultured using ST medium at 30° C. for 3 days. The culture solution was inoculated into YPAD medium to result in a final concentration of 5% therein, and culture was conducted at 30° C. for 3 days. A culture supernatant was prepared from the culture solution, and the resultant was designated as a sample containing antibodies secreted and produced by yeast. The secreted and produced antibodies were subjected to quantitative assay via sandwich ELISA. TRAIL receptor proteins that were antigens of the anti-TRAIL receptor antibodies were adsorbed on a 96-well plate, a yeast sample was added, and detection was carried out using a peroxidase-labeled human IgG specific Fc antibody (Peroxidase-labeled affinity purified antibody to human IgG (Fc) (KPL)) and the ABTS peroxidase substrate (KPL). Antibodies produced in animal cells (NS0) were used as standard samples.
The S. cerevisiae T2K01, S. cerevisiae T2K02, S. cerevisiae T2K03, and S. cerevisiae T2K04 strains prepared in Example 14 were cultured using ST medium at 30° C. for 3 days. […]

[5] = tested on: O. minuta AA2omH, AA2 ppH, AA2scH and AA2Hy strains; experiment: Antibody production by O. minuta strains with HAC1 gene introduced using PMT inhibitor (1c), TR-FRET quantification; assay type: cell-based, Ogataea minuta; conditions: 2 μM, plus 0.04 μM as OD600 increased by 1; 27° C., 3 days; HAC1 strains compared with control AA2Hy strain (FIG. 11)
Procedure: as §1
A platinum loopful of the O. minuta AA2omH strain, the O. minuta AA2 ppH strain, the O. minuta AA2scH strain, and the O. minuta AA2Hy strain was inoculated into 5 ml of B2YP4G medium, cultured at 27° C. for 1 day, and then diluted with B2YP4G medium to adjust OD600 at 10. […] A culture supernatant was prepared from the culture solution, and the amount of antibody production was measured by the method described in Example 21 (3).

[6] = tested on: O. minuta YY1 strains; experiment: Evaluation of PMT inhibitor (5a): antibody production by O. minuta YY1, Western analysis and TR-FRET quantification; assay type: cell-based, Ogataea minuta; conditions: 1 μm, plus 0.02 μM as OD600 increased by 1, 27° C.
Procedure: 20 mM Tris-HCl buffer (pH 7.2) comprising 12 μl of 0.97 μg/ml LANCE Eu-W1024 labeled anti-human IgG (PerkinElmer), 8.3 ug/ml of biotin-conjugated mouse anti-human IgG (BD Bioscience), 16.7 ug/ml Surelight APC streptavidin (PerkinElmer), and 10% of Block Ace (Dainippon Pharmaceutical) was applied to a 96-well half area plate (Corning), and 2 μl of a sample solution prepared by adequately diluting the culture solution prepared in (2) above with 20 mM Tris-HCl buffer (pH 7.2) containing 10% of Block Ace was introduced therein, followed by agitation. The sample solution was subjected to the reaction at room temperature in the dark for 1 hour, and fluorescence was then assayed using EnVision (PerkinElmer). The amount of aggregate antibodies produced was determined based on the value at 665 nm/615 nm. Antibodies produced in animal cells (CHO) were used as standard samples. […] However, similar effects of production could be expected even via introduction of the HAC1 gene derived from a species different from a host.
A platinum loopful of the O. minuta YY1 strains into which antibody genes had been introduced was inoculated into 5 ml of B2YP4G medium, cultured at 27° C. for 1 day, and diluted with B2YP4G medium to adjust OD600 at 10. […]

Compound	PMT inhibitor amount added as the OD600 value increased by 1 giving the highest antibody productivity [1]	PMT inhibitor amount added as the OD600 value increased by 1 giving the highest antibody productivity [2]	adequate concentration of the PMT inhibitor to be added ([3]; 0, 1, 5, 10, 20 and 50 μM tested in BYPM medium, 28° C., 2 days) [µM]	amount of antibody secretion ([3]; PMT inhibitor at 5 μM)	percentage of aggregate formation ([3]; PMT inhibitor at 5 μM)	synergistic effects of coexpression of the activated HAC1 gene and the RRBP1 gene on antibody production [4]	effects of accelerating antibody secretion [5]	effects compared with PMT inhibitor (1c) ([6]; 3 days)	productivity of antibody aggregates ([6]; 3 days (FIG. 19, FIG. 20))
5-[[3,4-(1-phenylmethoxy)phenyl]methylene]-4-oxo-2-thioxo-3-thiazolidineacetic acid [PMT inhibitor (1c)]	approximately 0.04 μM	approximately 0.008 μM	5	increased	increased	further enhanced	more significant effects of accelerating antibody secretion		
CC(Oc1cc(/C=C2\SC(=S)N(CC(=O)O)C2=O)ccc1OCCc1ccccc1)c1ccccc1 (stereo not drawn) [PMT inhibitor (5a), {(5Z)-4-oxo-5-[3-(1-phenylethoxy)-4-(2-phenylethoxy)benzylidene]-2-thioxo-1,3-thiazolidin-3-yl}acetic acid]								effects equivalent to those of the PMT inhibitor (1c)	tend to increase
